{"source": "patent US20080274522A1", "about": "“METHOD FOR THE PRODUCTION OF 2-BUTANONE” (priority 2007, published 2008)", "test_system": "glycerol dehydratase", "test": "Butanediol dehydratase activity of glycerol dehydratase", "assay_type": "biochemical, Klebsiella pneumoniae", "conditions": "10 mM meso-2,3-butanediol, 12 μM coenzyme B12, pH 8.2, 37° C., crude cell free extract of KLP23/pSYCO12", "description": "Glycerol dehydratase (E.C. 4.2.1.30) and diol dehydratase (E.C. 4.2.1.28), while structurally related, are often distinguished in the art based on various differences that include substrate specificity. […] The recombinant E. coli strain KLP23/pSYCO12, comprising Klebsiella pneumoniae genes encoding the multiple subunits of glycerol dehydratase (alpha: SEQ ID NO:145 (coding region) and 146 (protein); beta: SEQ ID NO: 147 (coding region) and 148 (protein); and gamma: SEQ ID NO: 149 (coding region) and 150 (protein)) and Klebsiella pneumoniae genes encoding the multiple subunits of glycerol dehydratase reactivase (large subunit, SEQ ID NO: 151 (coding region) and 152 (protein); and small subunit, SEQ ID NO: 153 (coding region) and 154 (protein)), is described in Emptage et al. U.S. Pat. No. 6,514,733 and in WO 2003089621, which are herein incorporated by reference. A crude, cell free extract of KLP23/pSYCO12 was prepared by methods known to one skilled in the art. […] The formation of 2-butanone was monitored by HPLC (Shodex SH-1011 column and SH-G guard column with refractive index detection; 0.01 M H2SO4 as the mobile phase at a flow rate of 0.5 mL/min and a column temperature of 50° C.; 2-butanone retention time=40.2 min). The rate of 2-butanone formation by the glycerol dehydratase preparation was determined to be 0.4 nmol/min/mg of crude protein.", "data": [{"smiles": "CC(O)C(C)O", "note": "(stereo not drawn) [meso-2,3-butanediol]", "values": [{"measurement": "Rate of 2-butanone formation", "result": "0.4 nmol/min/mg of crude protein"}]}]}
